The source of these data is article PMC9388600, “Uncovering the roles of dihydropyrimidine dehydrogenase in fatty-acid induced steatosis using human cellular models” (Scientific Reports, 2022).

The target in test [1] is T1, Dihydropyrimidine dehydrogenase (DPYD) (Homo sapiens, UniProt Q12882).
T1 sequence (Q12882 4-1025): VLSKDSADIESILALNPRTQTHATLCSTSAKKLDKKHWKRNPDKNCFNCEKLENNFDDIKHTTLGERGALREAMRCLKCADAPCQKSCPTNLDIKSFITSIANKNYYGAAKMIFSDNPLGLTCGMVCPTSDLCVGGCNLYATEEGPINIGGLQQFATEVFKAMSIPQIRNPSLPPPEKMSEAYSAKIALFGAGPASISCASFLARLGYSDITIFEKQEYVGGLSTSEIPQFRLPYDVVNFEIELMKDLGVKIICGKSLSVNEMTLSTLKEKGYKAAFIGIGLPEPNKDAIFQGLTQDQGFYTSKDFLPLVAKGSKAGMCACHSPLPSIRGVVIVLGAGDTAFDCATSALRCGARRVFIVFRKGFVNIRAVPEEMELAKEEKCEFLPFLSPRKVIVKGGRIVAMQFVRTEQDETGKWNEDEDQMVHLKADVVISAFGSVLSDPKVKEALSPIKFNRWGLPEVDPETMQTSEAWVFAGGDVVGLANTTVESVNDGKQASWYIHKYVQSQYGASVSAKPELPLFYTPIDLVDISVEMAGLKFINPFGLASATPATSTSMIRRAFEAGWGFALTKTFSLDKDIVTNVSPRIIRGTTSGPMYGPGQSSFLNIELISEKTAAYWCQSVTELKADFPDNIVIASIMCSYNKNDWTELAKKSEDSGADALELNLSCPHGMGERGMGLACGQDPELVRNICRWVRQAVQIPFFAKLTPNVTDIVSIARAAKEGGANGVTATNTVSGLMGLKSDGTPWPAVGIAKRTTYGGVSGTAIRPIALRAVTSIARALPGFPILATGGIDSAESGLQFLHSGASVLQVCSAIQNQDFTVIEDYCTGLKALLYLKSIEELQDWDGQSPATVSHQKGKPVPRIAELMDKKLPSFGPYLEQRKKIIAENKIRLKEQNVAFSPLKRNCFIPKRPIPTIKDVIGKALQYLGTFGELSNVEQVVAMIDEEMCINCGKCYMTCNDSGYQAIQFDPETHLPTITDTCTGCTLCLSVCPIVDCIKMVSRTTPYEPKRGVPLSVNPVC
As to the kind of experiment: uracil accumulation in media of primary human hepatocytes treated with inhibitor, LC/MS/MS (endogenous DPYD). The test is classed as cell-based.

For test [2], the target named is T1, Dihydropyrimidine dehydrogenase (DPYD). As to the kind of experiment: steady-state kinetics of purified enzyme, fluorometric NADPH depletion; substrate inhibition model (kcat). The test is classed as biochemical. Also on record: recombinant wild type DPYD, expressed from pET28a(+) in E. coli. Here is the method: steady-state kinetics of purified enzyme, fluorometric NADPH depletion; substrate inhibition model (kcat) on Dihydropyrimidine dehydrogenase (DPYD) | The kinetic measurements of DPYD were carried out by varying concentrations of uracil.

Test [3] has as its target T2, Dihydropyrimidine dehydrogenase (DPYD) (Homo sapiens, UniProt Q12882, L310S).
T2 construct: recombinant L310S mutant DPYD, expressed from pET28a(+) in E. coli
T2 sequence (Q12882 4-1025 L310S): T1 sequence (Q12882 4-1025) with L307S
As to the kind of experiment: steady-state kinetics of purified mutant enzyme, fluorometric NADPH depletion; substrate inhibition model (kcat). The test is classed as biochemical.

Where a chain is given by its changes, count along the chain named.

Consider `Oc1cc(O)c(Cl)cn1` [Gimeracil], for which it took 56 nM to reach half-maximal inhibition in test [1] (IC50).
As to `O=c1cc[nH]c(=O)[nH]1` [uracil], the “steady-state kinetics of purified enzyme, fluorometric NADPH depletion; substrat” value in test [2] turned out to be 65 ± 4 min⁻¹. Also, the “steady-state kinetics of purified mutant enzyme, fluorometric NADPH depletion; s” value in test [3] was 99 ± 5 min⁻¹.
